# Target: T1, human liver GK (Homo sapiens, UniProt P35557)
# T1 construct: GST (glutathione S-transferase) (N); made in house; host or cells: E. coli
# T1 sequence (P35557 1-466 isoform P35557-2): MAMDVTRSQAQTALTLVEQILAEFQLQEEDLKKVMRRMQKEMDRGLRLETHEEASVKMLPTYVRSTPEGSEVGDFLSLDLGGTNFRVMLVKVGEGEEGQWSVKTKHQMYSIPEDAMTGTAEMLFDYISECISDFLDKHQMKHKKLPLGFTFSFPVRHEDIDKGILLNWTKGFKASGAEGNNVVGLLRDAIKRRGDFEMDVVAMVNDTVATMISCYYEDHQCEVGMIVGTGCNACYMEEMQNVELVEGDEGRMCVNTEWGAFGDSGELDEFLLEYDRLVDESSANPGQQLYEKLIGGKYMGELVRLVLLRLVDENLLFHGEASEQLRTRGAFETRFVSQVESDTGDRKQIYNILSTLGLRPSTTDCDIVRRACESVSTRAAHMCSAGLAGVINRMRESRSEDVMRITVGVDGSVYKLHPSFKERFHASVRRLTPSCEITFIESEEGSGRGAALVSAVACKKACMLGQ
# Assay: GK activation test
# Type: biochemical
# Conditions: test compound concentration needed to activate 50% of maximum activation ability; 4 mM 14C-labeled glucose, 2 mM ATP, room temperature, 20 minutes
# Outline: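 GST-tagged human liver GK from E. coli (0.24 μg/well) with 4 mM 14C-glucose, 2 mM ATP in Hepes-KOH pH 7.1, KCl, MgCl2, DTT, 1% DMSO, 20 min room temperature. Labeled glucose 6-phosphate captured on anion resin, eluted and counted. EC50 = concentration giving half of maximal activation.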
row,Compound,EC50 [nM]
1,"CCOc1ccc(/C(=C\[C@H]2CCC(=O)N2)c2ccc(Cl)c(=O)[nH]2)cc1C [Example 4-50, 3-Chloro-6-{(E)-1-(4-ethoxy-3-methylphenyl)-2-[(2R)-5-oxopyrrolidin-2-yl]ethenyl}pyridin-2(1H)-one]",500 to 3000
2,"CCOc1ccc(/C(=C\[C@H]2CCC(=O)N2)c2ccc(Cl)c(=O)[nH]2)cc1C(F)(F)F [Example 4-51, 3-Chloro-6-{(E)-1-[4-ethoxy-3-(trifluoromethyl)phenyl]-2-[(2R)-5-oxopyrrolidin-2-yl]ethenyl}pyridin-2(1H)-one]",500 to 3000
3,"Cc1cc(/C(=C\[C@H]2CCC(=O)N2)c2ccc(Cl)c(=O)[nH]2)ccc1OCCCO [Example 4-52, 3-Chloro-6-{(E)-1-[4-(3-hydroxypropoxy)-3-methylphenyl]-2-[(2R)-5-oxopyrrolidin-2-yl]ethenyl}pyridin-2(1H)-one]",500 to 3000
4,"CS(=O)(=O)c1ccc(/C(=C\[C@H]2CCC(=O)N2)c2ccc(C3CC3)c(=O)[nH]2)cc1 [Example 4-53, 3-Cyclopropyl-6-{(E)-1-[4-(methylsulfonyl)phenyl]-2-[(2R)-5-oxopyrrolidin-2-yl]ethenyl}pyridin-2(1H)-one]",10 to 500
5,"Cc1cc(/C(=C\[C@H]2CCC(=O)N2)c2ccc(C3CC3)c(=O)[nH]2)ccc1S(=O)(=O)C1CC1 [Example 4-54, 3-Cyclopropyl-6-{(E)-1-[4-(cyclopropylsulfonyl)-3-methylphenyl]-2-[(2R)-5-oxopyrrolidin-2-yl]ethenyl}pyridin-2(1H)-one]",10 to 500
6,"Cc1cc(/C(=C\[C@H]2CCC(=O)N2)c2ccc(Cl)c(=O)[nH]2)ccc1S(=O)(=O)C1CC1 [Example 4-55, 3-Chloro-6-{(E)-1-[4-(cyclopropylsulfonyl)-3-methylphenyl]-2-[(2R)-5-oxopyrrolidin-2-yl]ethenyl}pyridin-2(1H)-one]",10 to 500
7,"CS(=O)(=O)c1ccc(/C(=C\[C@H]2CCC(=O)N2)c2ccc(Cl)c(=O)[nH]2)cc1C(F)(F)F [Example 4-56, 3-Chloro-6-{(E)-1-[4-(methylsulfonyl)-3-(trifluoromethyl)phenyl]-2-[(2R)-5-oxopyrrolidin-2-yl]ethenyl}pyridin-2(1H)-one]",500 to 3000
8,"O=C1CC[C@H](/C=C(\c2ccc(S(=O)(=O)C3CC3)cc2)c2ccc(Cl)c(=O)[nH]2)N1 [Example 4-57, 3-Chloro-6-{(E)-1-[4-(cyclopropylsulfonyl)phenyl]-2-[(2R)-5-oxopyrrolidin-2-yl]ethenyl}pyridin-2(1H)-one]",10 to 500
9,"CCS(=O)(=O)c1ccc(/C(=C\[C@H]2CCC(=O)N2)c2ccc(Cl)c(=O)[nH]2)cc1Cl [Example 4-58, 3-Chloro-6-{(E)-1-[3-chloro-4-(ethylsulfonyl)phenyl]-2-[(2R)-5-oxopyrrolidin-2-yl]ethenyl}pyridin-2(1H)-one]",500 to 3000
10,"O=C1CC[C@H](/C=C(\c2ccc(S(=O)(=O)C3CC3)c(Cl)c2)c2ccc(Cl)c(=O)[nH]2)N1 [Example 4-59, 3-Chloro-6-{(E)-1-[3-chloro-4-(cyclopropylsulfonyl)phenyl]-2-[(2R)-5-oxopyrrolidin-2-yl]ethenyl}pyridin-2(1H)-one]",10 to 500
11,"O=C1CC[C@H](/C=C(\c2ccc(S(=O)(=O)C3CCCC3)cc2)c2ccc(Cl)c(=O)[nH]2)N1 [Example 4-60, 3-Chloro-6-{(E)-1-[4-(cyclopentylsulfonyl)phenyl]-2-[(2R)-5-oxopyrrolidin-2-yl]ethenyl}pyridin-2(1H)-one]",10 to 500
12,"CN1CCN(S(=O)(=O)c2ccc(/C(=C\[C@H]3CCC(=O)N3)c3ccc(Cl)c(=O)[nH]3)cc2)CC1 [Example 4-61, 3-Chloro-6-{(E)-1-{4-[(4-methylpiperazin-1-yl)sulfonyl]phenyl}-2-[(2R)-5-oxopyrrolidin-2-yl]ethenyl}pyridin-2(1H)-one]",500 to 3000
13,"CCN(CC)CCCCOc1ccc(/C(=C\[C@H]2CCC(=O)N2)c2ccc(C3CC3)c(=O)[nH]2)cc1Cl [Example 4-62, 6-{(E)-1-{3-Chloro-4-[4-(diethylamino)butoxy]phenyl}-2-[(2R)-5-oxopyrrolidin-2-yl]ethenyl}-3-cyclopropylpyridin-2(1H)-one]",10 to 500
14,"CCN(CC)CCCCOc1ccc(/C(=C\[C@H]2CCC(=O)N2)c2ccc(Cl)c(=O)[nH]2)cc1Cl [Example 4-63, 3-Chloro-6-{(E)-1-{3-chloro-4-[4-(diethylamino)butoxy]phenyl}-2-[(2R)-5-oxopyrrolidin-2-yl]ethenyl}pyridin-2(1H)-one]",500 to 3000
15,"O=C1CC[C@H](/C=C(\c2ccc(OCCCCN3CCCC3)c(Cl)c2)c2ccc(Cl)c(=O)[nH]2)N1 [Example 4-64, 3-Chloro-6-{(E)-1-{3-chloro-4-[4-(pyrrolidin-1-yl)butoxy]phenyl}-2-[(2R)-5-oxopyrrolidin-2-yl]ethenyl}pyridin-2(1H)-one]",10 to 500
16,"CCN(CC)CCCOc1ccc(/C(=C\[C@H]2CCC(=O)N2)c2ccc(C3CC3)c(=O)[nH]2)cc1 [Example 4-65, 3-Cyclopropyl-6-{(E)-1-{4-[3-(diethylamino)propoxy]phenyl}-2-[(2R)-5-oxopyrrolidin-2-yl]ethenyl}pyridin-2(1H)-one]",500 to 3000
17,"CC(C)c1ccc(/C(=C\[C@H]2CCC(=O)N2)c2ccc(C3CC3)c(=O)[nH]2)cc1 [Example 4-67, 3-Cyclopropyl-6-{(E)-2-[(2R)-5-oxopyrrolidin-2-yl]-1-[4-(propan-2-yl)phenyl]ethenyl}pyridin-2(1H)-one]",10 to 500
18,"CCC(=O)N1CC[C@H](/C=C(\c2ccc(C(C)(C)C)cc2)c2ccc(Cl)c(=O)[nH]2)C1 [Example 4-68, 6-{(E)-1-(4-tert-Butylphenyl)-2-[(3R)-1-propanoylpyrrolidin-3-yl]ethenyl}-3-chloropyridin-2(1H)-one]",10 to 500
19,"CC(C)(C)c1ccc(/C(=C\[C@H]2CCC(=O)N2)c2ccc(Cl)c(=O)[nH]2)cc1Cl [Example 4-71, 6-{(E)-1-(4-tert-Butyl-3-chlorophenyl)-2-[(2R)-5-oxopyrrolidin-2-yl]ethenyl}-3-chloropyridin-2(1H)-one]",10 to 500
20,"CCS(=O)(=O)N1CC[C@H](/C=C(\c2ccc(C(C)(C)C)cc2)c2ccc(Cl)c(=O)[nH]2)C1 [Example 4-72, 6-{(E)-1-(4-tert-Butylphenyl)-2-[(3R)-1-(ethylsulfonyl)pyrrolidin-3-yl]ethenyl}-3-chloropyridin-2(1H)-one]",10 to 500
21,"COCCCCc1ccc(/C(=C\[C@H]2CCC(=O)N2)c2ccc(Cl)c(=O)[nH]2)cc1 [Example 4-73, 3-Chloro-6-{(E)-1-[4-(4-methoxybutyl)phenyl]-2-[(2R)-5-oxopyrrolidin-2-yl]ethenyl}pyridin-2(1H)-one]",500 to 3000
22,"CC(C)(C)c1ccc(/C(=C\[C@H]2CCC(=O)N2)c2ccc(C(F)(F)F)c(=O)[nH]2)cc1 [Example 4-74, 6-{(E)-1-(4-tert-Butylphenyl)-2-[(2R)-5-oxopyrrolidin-2-yl]ethenyl}-3-(trifluoromethyl)pyridin-2(1H)-one]",10 to 500
23,"CC(C)(C)c1ccc(/C(=C\[C@@H]2CCC(=O)N2)c2ccc(Cl)c(=O)[nH]2)cc1 [Example 4-75, 6-{(E)-1-(4-tert-Butylphenyl)-2-[(2S)-5-oxopyrrolidin-2-yl]ethenyl}-3-chloropyridin-2(1H)-one]",3000 to 10000
24,"O=C(C1CC1)N1CC[C@H](/C=C(\c2ccc(Cl)cc2)c2ccc(C3CC3)c(=O)[nH]2)C1 [Example 4-78, 6-{(E)-1-(4-Chlorophenyl)-2-[(3R)-1-(cyclopropylcarbonyl)pyrrolidin-3-yl]ethenyl}-3-cyclopropylpyridin-2(1H)-one]",10 to 500
25,"CN1CCOc2cc(/C(=C\[C@H]3CCC(=O)N3)c3ccc(Cl)c(=O)[nH]3)ccc21 [Example 4-79, 3-Chloro-6-{(E)-1-(4-methyl-3,4-dihydro-2H-1,4-benzoxazin-7-yl)-2-[(2R)-5-oxopyrrolidin-2-yl]ethenyl}pyridin-2(1H)-one]",500 to 3000
26,"CC(C)c1ccc([C@@H](C[C@H]2CCC(=O)N2)c2ccc(C3CC3)c(=O)[nH]2)cc1 [Example 4-80, 3-Cyclopropyl-6-{(1R)-2-[(2R)-5-oxopyrrolidin-2-yl]-1-[4-(propan-2-yl)phenyl]ethyl}pyridin-2(1H)-one]",10 to 500
27,"CC(C)c1ccc(/C(=C\[C@H]2CCC(=O)N2)c2ccc(C3CC3)c(=O)[nH]2)cc1Cl [Example 4-81, 6-{(E)-1-[3-Chloro-4-(propan-2-yl)phenyl]-2-[(2R)-5-oxopyrrolidin-2-yl]ethenyl}-3-cyclopropylpyridin-2(1H)-one]",10 to 500
28,"CC(C)c1ccc(/C(=C/[C@H]2CCC(=O)N2)c2ccc(Cl)c(=O)[nH]2)cc1 [Example 4-82, 3-Chloro-6-{(Z)-2-[(2R)-5-oxopyrrolidin-2-yl]-1-[4-(propan-2-yl)phenyl]ethenyl}pyridin-2(1H)-one]",3000 to 10000
29,"CC(C)(C)c1ccc(/C(=C\[C@H]2CCC(=O)N2)c2ccc(C3CC3)c(=O)[nH]2)cc1 [Example 4-83, 6-{(E)-1-(4-tert-Butylphenyl)-2-[(2R)-5-oxopyrrolidin-2-yl]ethenyl}-3-cyclopropylpyridin-2(1H)-one]",10 to 500
30,"CC(C)c1ccc(/C(=C\[C@H]2CCC(=O)N2)c2ccc(Cl)c(=O)[nH]2)cc1Cl [Example 4-84, 3-Chloro-6-{(E)-1-[3-chloro-4-(propan-2-yl)phenyl]-2-[(2R)-5-oxopyrrolidin-2-yl]ethenyl}pyridin-2(1H)-one]",10 to 500

# From patent publication US8822503B2, “2-pyridone compounds” (Taisho Pharmaceutical Co., Ltd, priority 2009, dated 2014)
